# Key:
# purified PfENR [1] = target: T1, purified PfENR (Plasmodium falciparum, UniProt Q9BH77); assay: PfENR inhibition, standard enzyme assay; type: biochemical; details: read-out: Inhibition of PfENR (IC50 μM)
# T1 sequence (Q9BH77 22-432): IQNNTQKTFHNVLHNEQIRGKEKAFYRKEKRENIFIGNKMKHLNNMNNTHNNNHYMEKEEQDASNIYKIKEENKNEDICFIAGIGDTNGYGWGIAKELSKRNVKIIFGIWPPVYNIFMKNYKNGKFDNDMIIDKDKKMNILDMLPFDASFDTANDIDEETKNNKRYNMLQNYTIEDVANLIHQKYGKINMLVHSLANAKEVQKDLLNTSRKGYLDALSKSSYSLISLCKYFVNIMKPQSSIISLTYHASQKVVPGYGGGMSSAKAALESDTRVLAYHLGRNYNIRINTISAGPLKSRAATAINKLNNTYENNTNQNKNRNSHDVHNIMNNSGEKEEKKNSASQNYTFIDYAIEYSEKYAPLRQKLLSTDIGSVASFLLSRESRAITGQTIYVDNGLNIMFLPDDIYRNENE
# Experimental: (§1) PfENR activity was determined using standard assay described earlier.
# [2] = tested on: Plasmodium falciparum 3D7; assay: In vitro inhibition of P. falciparum 3D7 blood-stage parasites; type: cell-based
# Experimental: Benzothiophene carboxamide derivatives of the present invention were checked for their anti-parasitic activity against 3D7 (chloroquine sensitive strain) in an in vitro culture. […] To find out parasite stage where these compounds act, synchronised ring stage culture of P. falciparum was treated with 2.5 μM concentration of compounds 6 and 7. […] When compounds 6 and 7 were added at the trophozoite stage the cells could not proceed to the schizont stage indicating the growth inhibition occurs at trophozoite stage.
# Synchronised culture of P. falciparum 3D7 was treated with 2.5 μM compound 10 and 11 at the ring stage.
# purified PfENR [3] = target: T1, purified PfENR; assay: PfENR inhibition kinetics, cofactor potency and progress curve analysis; type: biochemical
# Experimental: as §1
# The accumulation of product further decreased when compound 6 was preincubated with the enzyme (curve c). On addition of NAD+ to this reaction the rate of product accumulation further decreased (curve d).
# Progress curves for inhibition by varying concentrations of compounds 6 and 7 were examined in detail (FIGS. 16a and 16b). From the progress curve analyses, it was inferred that for each concentration of the inhibitors the initial and the steady state velocity decreased exponentially with time. At higher inhibitor concentration, steady state is reached rapidly with a decrease in steady state velocity (vs). […] Progress curves were analysed using equation 3a from which a series of Kobs values were obtained for each concentration of inhibitor.
# [4] = tested on: hepatic cell stages of P. berghei; assay: Inhibition of hepatic cell stages (EEFs) of P. berghei; type: cell-based
# HepG2 cells = assay: Toxicity to HepG2 cells; type: cell-based; details: one day treatment
# [5] = tested on: blood-stage P. berghei ANKA; assay: Experimental cerebral malaria in C57BL/6 mice; type: in vivo; details: for Mean Survival Days (Observed for 25 days): 5 mg/kg body weight daily for six days
# Experimental: C57BL/6 mice were infected with blood-stage P. berghei ANKA as discussed in the experimental section. After 24 hours of infection mice were treated intravenously with various doses of inhibitors. It was observed that all control mice developed hypothermia by day 2, ataxia and convulsions by day 3 and died by day 6, whereas inhibitor treated groups had considerably higher longevity (11-24 days). Though each group of mice developed hypothermia by day 4, convulsions and ataxia development were delayed in case of treated mice. […] The mice treated with 2.5 mg/kg body weight survived for 18 days. Even at or below 1 mg/kg body weight of inhibitor dose, the mice survived for 11 days, but paralysis and ataxia development occurred on Day 7.
# […]. The mice were treated for 6 days. […]. Chloroquine was used as the control drug. […].
# Therefore, compounds 10 and 11 were also administered at 5 mg/Kg body weight. The compounds were administered through intraperitoneal, peroral, subcutaneous and intravenous routes. Compound 10 and 11 were administered once daily for 6 days. […]. The mean survival days for this treatment group was 16 (FIG. 12c and Table III). […]. Chloroquine was used as the control drug.
# [6] = Hot plate latency test (thermal hyperalgesia); type: in vivo, rats
# Experimental: The animals were housed in an animal house facility of National Institute of Immunology, India, with controlled temperature (22±2° C.) under a 12/12 h light/dark cycle. They had free access to food and water ad libitum. All experiments were conducted according to the guidelines of the international association for the study of pain and approved by the institutional ethical committee for animal research. All in vivo experiments were carried out on inbred male […] rats ( 200-320 g body weight). Same age and equal body weight of animals were used according to experiments. No animals were used for more than one experiment. Most popular non-steroidal anti-inflammatory drugs which are widely use for treatment of chronic and inflammatory pain, such as Ibuprofen, Naproxen, Ketoprofen, Aspirin, Nimesulide, Indomethacine were purchased from Cayman Chemicals, USA and used to evaluate the efficacy of drugs in animal model. These drugs and different derivatives of Benzothiophene were dissolved in minimum volume of Dimethyl sulfoxide (DMSO) and further diluted in Phosphate buffer saline prior to use. […] Withdrawal latency for tail flicking was measured. […] NSAIDs is commonly evaluated by hot plate latency assay whereby animals are exposed to thermal stimulus (54 degree […] time for hind paw licking is measured as behavioural response for pain.
# [7] = Mechanical hyperalgesia, Randall-Selitto, carrageenan induced; type: in vivo, rats; details: 15 mg/kg b wt., after 1 hrs, basal level in 5 hrs
# Experimental: Mechanical hyperalgesia was measured as hind limb withdrawal threshold in response to a mechanical stimulus applied to hind paws of rat using Randall-selitto meter, Randall and Selitto, 1957. To determine the mechanical hyperalgesia, the force was applied with increased pressure at a constant rate until the animal withdrew its limb. The base line nociceptive threshold was measured before induction of hyperalgesia. Moreover, hyperalgesia was induced by carrageenan and then groups of animal were treated with compound 4, compound 6 and compound 8 (15 mg/kg body weight) and Ibuprofen (50 mg/kg body weight). Control group was treated with physiological saline. […] The anti-nociceptive efficacy of the compounds has been evaluated the efficacy with paw withdrawal threshold latency of animals.
# Tail flick latency test = details: 15 mg/kg b. wt. vs Ibuprofen 50 mg/kg b. wt., 30 min and 60 min post injection
# Experimental: Hot plate latency test was performed under red light on the metal surface of hot plate analgesia meter (IITC, Life science, CA). Animals were placed individually on the surface of hot plate maintained at a constant temperature 54±1° C. The anti-nociceptive response was latency recorded from the time when animal was placed on the heated surface until the behavior response show licking of hind paw to avoid thermal nociception. A maximum hot plate latency of 30 sec was used for each animal to prevent paw tissue damage. Base line nociceptive latency was obtained for each animal prior to any drug administration. Thereafter, groups of animals were treated with different concentration of different derivatives of benzothiophene and well known NSAIDs. […] Subsequent nociceptive response latency for each animal was determined at 30 and 60 min after drug administration. […] In continuation of tail flick latency assay, the anti-nociceptive effect of the compounds was monitored. Rats treated as described above were subjected to determination of thermal nociceptive pain. Rats were confined in restrainer and allowed to accommodate. The tail withdrawal test consisted of immersing the posterior 8-10 cm of the tail in hot water bath maintained at 54±1° C. Withdrawal latency for tail flicking was measured. A maximum tail flick latency of 20 sec was permitted to minimize tissue damage.
structure (smiles),measurement,setting,value
"O=C(NCc1ccc(F)cc1)c1sc2ccccc2c1Br [Compound 6, N-(4-fluorobenzyl)-3-bromobenzo[b]thiophene-2-carboxamide]",IC50,purified PfENR [1],0.115 ± 0.12 µM
same,Stage of parasite growth arrest,"[2]; 2.5 μM, added at ring stage, P. falciparum 3D7",arrested at the trophozoite stage
same,Parasites observed to be dead,"[2]; 2.5 μM, synchronised ring stage culture of P. falciparum 3D7",~90%
same,IC50,"[2]; Erythrocyte, growth inhibition, red blood cell stages of Plasmodium falciparum 3D7 (chloroquine sensitive), read-out: P. falciparum (IC50 μM)",1 ± 0.3 µM
same,Effect of NAD+ on binding to PfENR (cofactor potency assay),purified PfENR [3]; 10 μM NAD+ added to preincubated mixture,potentiate the binding
same,Inhibition kinetics with respect to NADH,"purified PfENR [3]; Dixon plot, cofactor NADH",competitive kinetics with NADH
same,Inhibition kinetics with respect to crotonoyl CoA,"purified PfENR [3]; Dixon plot, substrate crotonoyl CoA",uncompetitive against crotonoyl CoA
same,Binding behaviour from progress curves,purified PfENR [3]; inhibitor 0-750 nM,slow tight binding behaviour
same,Isomerization rate constant (k5 * 10^−2) (s^−1),"purified PfENR [3]; purified PfENR, progress curves",1.19 ± .045 10^−2 s^−1
same,koff,"purified PfENR [3]; purified PfENR, progress curves, read-out: Dissociation rate constant (k6* 10^−3)",0.001 s⁻¹
same,Ki,"purified PfENR [3]; purified PfENR, read-out: Dissociation constant (Ki)",0.0489 µM
same,IC50,"[4]; Plasmodium berghei, 48 h, hepatic cell stages of P. berghei, two days treatment",51 µM
same,Therapeutic Index (TI) [=TC50/IC50],[4]; TC50 HepG2 / IC50 EEFs,39.0 ± 4
same,TC50 for HepG2 cells,HepG2 cells,2000 ± 200 µM
same,"Survival, dose determination","[5]; 2.5 mg/kg body weight intravenously, C57BL/6 mice",18 days
same,"Kidney and liver functions (urea, creatinine and glucose levels)",[5]; 5 mg/kg body weight,normal kidney and liver functions
same,"Survival, dose determination","[5]; 5 mg/kg body weight intravenously, C57BL/6 mice",24 days
same,"Survival, dose determination","[5]; 10 mg/kg body weight intravenously, C57BL/6 mice",20 days
same,Mean Survival Days (Observed for 25 days),"[5]; Intraperitoneal, C57BL/6 mice, 5 mg/kg",20 ± 0.9 days
same,Mean Survival Days (Observed for 25 days),"[5]; Intraperitoneal, C57BL/6 mice, listed as compound 6, 5 mg/kg",21 days
same,Mean Survival Days (Observed for 25 days),"[5]; Intravenous, C57BL/6 mice, 5 mg/kg",24 ± 2.0 days
same,Mean Survival Days (Observed for 25 days),"[5]; Intravenous, C57BL/6 mice, listed as compound 6, 5 mg/kg",24 days
same,Mean Survival Days (Observed for 25 days),"[5]; Per oral, C57BL/6 mice",12 ± 1.2 days
same,Mean Survival Days (Observed for 25 days),"[5]; Subcutaneous, C57BL/6 mice, 5 mg/kg",18 ± 1.3 days
same,Mean Survival Days (Observed for 25 days),"[5]; Subcutaneous, C57BL/6 mice, listed as compound 6, 5 mg/kg",21 days
same,"Survival, dose determination","[5]; at or below 1 mg/kg body weight intravenously, C57BL/6 mice",11 days
same,Parasitemia levels (Peter's test),"[5]; intravenous treatment, C57BL/6 mice",undetectable level by Day 18
same,Increase of longevity,"[5]; oral route, 5 mg/kg body weight, 6 days treatment",5 days
same,"MPE index, hot plate latency assay","[6]; 15 mg/kg b. wt. i.p., 30 and 60 min",preeminent analgesic activity compared to other compounds
same,"Analgesic activity compared with Ibuprofen, hot plate",[6]; compounds 15 mg/kg b. wt. vs Ibuprofen 50 mg/kg b. wt.,potent analgesic activity at much lower concentration than Ibuprofen
same,"Mechanical hyperalgesia, paw withdrawal threshold",[7],significantly reversed the mechanical hyperalgesia
same,"Anti-nociceptive response, tail flick latency assay",Tail flick latency test,better anti-nociceptive response than the Ibuprofen
